Values joined by “and” are separate entries in the source; they are usually repeats but may differ in a detail not shown here. Identical values can stand only once.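 Exposure lasted 48 hours, with cells grown in 96-well plates and compounds tested at five concentrations. GI50: concentration for 50% inhibition of growth. TGI: concentration producing complete growth inhibition.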
Key:
Assay in all cases: NCI-60 cell line screen, 48 h
A549 NSCLC = test system: A549 NSCLC
EKVX NSCLC = test system: EKVX NSCLC
LOX IMVI melanoma = test system: LOX IMVI melanoma
MCF7 breast = test system: MCF7 breast
MDA-MB-231 breast = test system: MDA-MB-231 breast
MDA-MB-435 = test system: MDA-MB-435
TK-10 renal = test system: TK-10 renal
OVCAR-3 ovarian = test system: OVCAR-3 ovarian
SK-MEL-2 melanoma = test system: SK-MEL-2 melanoma
K-562 leukemia = test system: K-562 leukemia

Row | Structure (SMILES) | TGI (A549 NSCLC) | TGI (EKVX NSCLC) | TGI (LOX IMVI melanoma) | TGI (MCF7 breast) | GI50 (MDA-MB-231 breast) | TGI (MDA-MB-231 breast) | TGI (MDA-MB-435) | TGI (TK-10 renal) | TGI (OVCAR-3 ovarian) [µM] | TGI (SK-MEL-2 melanoma) [µM] | GI50 (A549 NSCLC) [µM] | GI50 (K-562 leukemia) [µM] | TGI (K-562 leukemia) [µM] | GI50 (MCF7 breast) [µM] | GI50 (MDA-MB-435) [µM] | GI50 (TK-10 renal) [µM] | GI50 (EKVX NSCLC) [µM] | GI50 (LOX IMVI melanoma) [µM] | GI50 (OVCAR-3 ovarian) [µM] | GI50 (SK-MEL-2 melanoma) [µM]
1 | COc1cc([C@@H]2c3cc4c(cc3[C@@H](OC3OC5COC(C)OC5C(O)C3O)[C@H]3COC(=O)[C@H]23)OCO4)cc(OC)c1O (stereo partly specified) | 61.4 µM and 108 µM | 149 µM and 500 µM and 183 µM | > 81.1 µM and 11.6 µM and 42.9 µM | 103 µM and 500 µM and 432 µM | 7.49 µM and 5.82 µM | > 35 µM and 34.4 µM and 8.11 µM | 19 µM and 50 µM | > 84.4 µM and 48.8 µM and 32 µM |  |  |  |  |  |  |  |  |  |  |  | 
2 | COc1cc2c(c3oc4c(O)cccc4c(=O)c13)CC(C(C)(O)CCl)O2 (stereo unspecified) | 13.6 µM | 21.9 µM | 0.026 µM | 12.9 µM |  | 5.6 µM | 1.55 µM | 41.8 µM | 7.43 | 3.38 |  |  |  |  |  |  |  |  |  | 
3 | C=C1C(C)C2C(Cc3ccccc3)NC(=O)C23C(OC(C)=O)C=CC(C)(O)C(=O)C(C)C/C=C/C3C1O (stereo unspecified) | > 500 µM | > 95.5 µM and 30 µM |  | 87 µM and 275 µM | 0.193 µM | > 220 µM | > 414 µM |  | > 500 | 74.8 | 0.241 | 13.6 | > 500 | 8.87 | 2.32 | 0.732 |  |  |  | 
4 | O=C1c2ccccc2C(=O)c2c1ccc1c3ccccc3n(-c3ccccc3)c21 | 58.1 µM | 56 µM | 30.4 µM | > 55.6 µM |  | 77.7 µM | 26 µM | 60.1 µM | 55 | 46.8 |  |  | 29.8 |  |  |  |  |  |  | 
5 | C=C(CN1CCN(c2cc(C(F)(F)F)cc(C(F)(F)F)c2)CC1)c1ccc(C(=O)Nc2ccccc2N)cc1 | > 100 µM | 58.6 µM | > 100 µM | 21.8 µM | 1.06 µM | 17.9 µM | 4.88 µM | > 100 µM | 21.2 | > 100 | 19 | 1.69 | > 100 | 0.839 | 1.84 | 12.3 | 11.7 | 2.34 | 3.18 | 10.2
6 | CSc1ccc(-c2cn3ccsc3n2)cc1 | > 100 µM | > 100 µM | > 100 µM | > 100 µM | 31.8 µM | > 100 µM | > 100 µM | > 84.7 µM | > 100 | > 92.9 | 12.9 | 4.85 | > 100 | 1.33 | 12.6 | 18 | 36.2 | 8.6 | > 28.6 | 4
7 | CCc1ccc([OH2+])c(C(=O)[O-])c1.CCc1ccc([OH2+])c(C(=O)[O-])c1.CCc1ccc([OH2+])c(C(=O)[O-])c1.CCc1ccc([OH2+])c(C(=O)[O-])c1.[Cu+2].[Cu+2] | > 100 µM | > 100 µM | > 100 µM | > 100 µM | > 100 µM | > 100 µM | > 100 µM | > 100 µM | > 100 | > 100 | 38.6 | 38.1 | > 73.9 | 35 | 49.3 | > 85.8 | > 100 | > 100 | 36.5 | > 91.3
8 | CC1=C(C(=S)Nc2ccc(Cl)c(C(=O)OC(C)C)c2)SCCO1 | 84.1 µM | 54.4 µM | 28.8 µM | > 100 µM |  | 33.2 µM | 42.7 µM | 54.3 µM | 52.7 | 48.9 |  |  | 43.6 |  |  |  |  |  |  | 
